What was measured:
Format in all cases: cell-based
[1] = target: human TLR8 (Homo sapiens (Human), UniProt Q9NR97); assay: TLR8 inhibition reporter assay (HEK-Blue, SEAP); conditions: HEK-Blue cells overexpressing human TLR8, R848 15.9 μM stimulation
In short: (§1)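 After 30 min room-temperature pre-incubation with compound (0.05 nM–50 μM), reporter HEK-Blue lines were activated by ODN2006 5 nM for TLR9, R848 15.9 μM for TLR8 or gardiquimod 7.5 μM for TLR7. SEAP detected after 22 h, 37 °C; inhibition scaled between agonist+DMSO wells and known-inhibitor control.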

[2] = target: human TLR7 (Homo sapiens (Human), UniProt Q9NYK1); assay: TLR7 inhibition reporter assay (HEK-Blue, SEAP); conditions: HEK-Blue cells overexpressing human TLR7, gardiquimod 7.5 μM stimulation
In short: as §1

[3] = target: human TLR9 (Homo sapiens (Human), UniProt Q9NR96); assay: TLR9 inhibition reporter assay (HEK-Blue, SEAP); conditions: HEK-Blue cells overexpressing human TLR9, ODN2006 5 nM stimulation
In short: as §1

Chain of human TLR7 (Q9NYK1 27-1049): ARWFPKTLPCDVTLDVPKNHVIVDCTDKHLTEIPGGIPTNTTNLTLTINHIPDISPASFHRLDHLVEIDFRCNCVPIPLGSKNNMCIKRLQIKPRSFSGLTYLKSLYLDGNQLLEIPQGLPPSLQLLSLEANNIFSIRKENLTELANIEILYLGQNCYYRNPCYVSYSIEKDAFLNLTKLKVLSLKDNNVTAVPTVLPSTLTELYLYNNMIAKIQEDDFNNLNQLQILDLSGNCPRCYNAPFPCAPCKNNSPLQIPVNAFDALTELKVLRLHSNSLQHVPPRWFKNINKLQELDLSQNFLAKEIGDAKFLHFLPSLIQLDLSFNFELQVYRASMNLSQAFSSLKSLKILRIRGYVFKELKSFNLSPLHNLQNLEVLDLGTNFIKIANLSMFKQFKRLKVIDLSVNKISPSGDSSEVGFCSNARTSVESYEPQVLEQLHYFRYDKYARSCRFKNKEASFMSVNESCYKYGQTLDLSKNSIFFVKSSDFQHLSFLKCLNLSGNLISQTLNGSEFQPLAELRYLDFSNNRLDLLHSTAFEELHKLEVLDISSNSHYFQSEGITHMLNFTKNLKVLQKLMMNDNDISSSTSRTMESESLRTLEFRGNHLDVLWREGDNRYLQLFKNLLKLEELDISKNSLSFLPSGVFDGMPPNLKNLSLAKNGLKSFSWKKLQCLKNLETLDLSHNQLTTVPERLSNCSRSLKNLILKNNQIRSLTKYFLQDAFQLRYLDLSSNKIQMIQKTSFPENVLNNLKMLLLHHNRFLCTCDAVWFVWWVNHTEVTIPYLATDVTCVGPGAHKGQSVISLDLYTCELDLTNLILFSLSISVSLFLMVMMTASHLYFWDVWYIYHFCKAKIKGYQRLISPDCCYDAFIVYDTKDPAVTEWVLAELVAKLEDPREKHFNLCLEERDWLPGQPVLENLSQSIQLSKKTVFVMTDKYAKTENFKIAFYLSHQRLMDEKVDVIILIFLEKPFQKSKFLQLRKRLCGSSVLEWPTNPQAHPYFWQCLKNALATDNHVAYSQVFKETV
Chain of human TLR8 (Q9NR97 27-1041): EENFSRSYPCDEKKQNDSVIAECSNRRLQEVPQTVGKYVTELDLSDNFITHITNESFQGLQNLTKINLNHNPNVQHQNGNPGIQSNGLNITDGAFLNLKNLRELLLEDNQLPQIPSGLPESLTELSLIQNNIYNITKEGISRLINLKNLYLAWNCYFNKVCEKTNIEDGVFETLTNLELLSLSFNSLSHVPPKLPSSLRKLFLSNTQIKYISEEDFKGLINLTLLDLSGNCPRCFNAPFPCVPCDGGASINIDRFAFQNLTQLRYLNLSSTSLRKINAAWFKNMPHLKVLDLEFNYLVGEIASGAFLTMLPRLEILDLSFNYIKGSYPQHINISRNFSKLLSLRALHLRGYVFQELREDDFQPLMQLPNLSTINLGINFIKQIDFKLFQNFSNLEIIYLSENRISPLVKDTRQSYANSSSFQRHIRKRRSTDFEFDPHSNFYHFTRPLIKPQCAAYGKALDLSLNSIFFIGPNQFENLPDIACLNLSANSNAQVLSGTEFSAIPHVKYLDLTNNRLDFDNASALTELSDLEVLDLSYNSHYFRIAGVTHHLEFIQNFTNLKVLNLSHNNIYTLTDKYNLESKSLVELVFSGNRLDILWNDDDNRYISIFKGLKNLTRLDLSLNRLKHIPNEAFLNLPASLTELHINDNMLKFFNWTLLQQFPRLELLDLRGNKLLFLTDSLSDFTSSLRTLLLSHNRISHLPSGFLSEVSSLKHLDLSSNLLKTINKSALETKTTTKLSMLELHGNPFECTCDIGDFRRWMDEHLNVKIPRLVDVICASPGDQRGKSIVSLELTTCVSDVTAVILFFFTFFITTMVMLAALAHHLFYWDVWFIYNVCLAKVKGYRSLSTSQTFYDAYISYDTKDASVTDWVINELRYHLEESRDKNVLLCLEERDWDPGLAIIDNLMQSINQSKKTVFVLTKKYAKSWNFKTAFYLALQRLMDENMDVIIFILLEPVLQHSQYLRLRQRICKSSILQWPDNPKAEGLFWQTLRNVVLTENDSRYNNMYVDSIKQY
Chain of human TLR9 (Q9NR96 26-1032): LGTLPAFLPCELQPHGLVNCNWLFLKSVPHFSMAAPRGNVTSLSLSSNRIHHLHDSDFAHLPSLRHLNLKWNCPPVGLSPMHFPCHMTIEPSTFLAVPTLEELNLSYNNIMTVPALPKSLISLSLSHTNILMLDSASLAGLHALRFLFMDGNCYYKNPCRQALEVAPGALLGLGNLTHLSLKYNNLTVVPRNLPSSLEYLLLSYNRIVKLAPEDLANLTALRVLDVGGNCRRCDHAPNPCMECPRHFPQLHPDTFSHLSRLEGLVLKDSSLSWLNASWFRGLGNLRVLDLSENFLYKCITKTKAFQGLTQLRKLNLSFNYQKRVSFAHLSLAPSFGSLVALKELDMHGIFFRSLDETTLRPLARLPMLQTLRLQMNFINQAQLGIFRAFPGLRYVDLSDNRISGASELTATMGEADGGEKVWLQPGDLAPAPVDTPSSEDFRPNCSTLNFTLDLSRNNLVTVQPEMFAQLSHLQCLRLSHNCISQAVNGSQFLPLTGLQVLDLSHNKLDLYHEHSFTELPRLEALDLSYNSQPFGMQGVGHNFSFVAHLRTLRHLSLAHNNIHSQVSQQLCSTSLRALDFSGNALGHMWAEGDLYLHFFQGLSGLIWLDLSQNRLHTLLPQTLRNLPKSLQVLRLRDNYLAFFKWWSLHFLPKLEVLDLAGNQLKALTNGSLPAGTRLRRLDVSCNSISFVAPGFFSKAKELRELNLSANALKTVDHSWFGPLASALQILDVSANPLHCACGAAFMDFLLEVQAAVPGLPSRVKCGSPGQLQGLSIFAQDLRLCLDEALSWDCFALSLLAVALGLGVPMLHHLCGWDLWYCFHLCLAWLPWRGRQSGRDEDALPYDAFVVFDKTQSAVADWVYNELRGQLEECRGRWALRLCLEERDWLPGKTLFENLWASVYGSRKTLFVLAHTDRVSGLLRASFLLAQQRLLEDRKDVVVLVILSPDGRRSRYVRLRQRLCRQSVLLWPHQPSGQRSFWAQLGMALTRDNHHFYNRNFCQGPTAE

IC50 [1] [nM] | IC50 [2] [nM] | IC50 [3] [nM] | SMILES
340 | 1040 | > 50000 | COc1ccc(-c2[nH]c3ccc(-c4nnc(CC(F)(F)F)o4)cc3c2C(C)C)cc1OC [Example 64, 2-(2-(3,4-dimethoxyphenyl)-3-isopropyl-1H-indol-5-yl)-5-(2,2,2-trifluoroethyl)-1,3,4-oxadiazole]
2.9 | 97 | 2000 | Cc1cc(-c2[nH]c3ccc(-c4nnc(C5CCN(CC(=O)N(C)C)CC5)o4)cc3c2C(C)C)ccn1 [Example 65, 2-(4-(5-(3-isopropyl-2-(2-methylpyridin-4-yl)-1H-indol-5-yl)-1,3,4-oxadiazol-2-yl)piperidin-1-yl)-N,N-dimethylacetamide]
38 | 53 | 2310 | Cc1cc(-c2[nH]c3ccc(-c4nnc(C5CCNCC5)o4)cc3c2C(C)C)ccn1 [Example 66, 2-(3-isopropyl-2-(2-methylpyridin-4-yl)-1H-indol-5-yl)-5-(piperidin-4-yl)-1,3,4-oxadiazole]
57 | 244 | 316 | CNCCN1CCC(c2nnc(-c3ccc4[nH]c(-c5ccc(OC)c(OC)c5)c(CC(F)(F)F)c4c3)o2)CC1 [Example 67, 2-(4-(5-(2-(3,4-dimethoxyphenyl)-3-(2,2,2-trifluoroethyl)-1H-indol-5-yl)-1,3,4-oxadiazol-2-yl)piperidin-1-yl)-N-methylethan-1-amine]
41 | 320 | 31600 | Cc1cc(-c2[nH]c3ccc(-c4nnc([C@@H]5CSCN5)o4)cc3c2C(C)C)ccn1 [Example 68, (R)-2-(3-isopropyl-2-(2-methylpyridin-4-yl)-1H-indol-5-yl)-5-(thiazolidin-4-yl)-1,3,4-oxadiazole]
0.9 | 16 | 687 | Cc1cc(-c2[nH]c3ccc(-c4nnc([C@H]5CCCNC5)o4)cc3c2C(C)C)ccn1 [Example 69, (S)-2-(3-isopropyl-2-(2-methylpyridin-4-yl)-1H-indol-5-yl)-5-(piperidin-3-yl)-1,3,4-oxadiazole]
6.7 | 38 | 5040 | Cc1cc(-c2[nH]c3ccc(-c4nnc(C5CNCCO5)o4)cc3c2C(C)C)ccn1 (stereo not drawn) [Example 70, 2-(5-(3-isopropyl-2-(2-methylpyridin-4-yl)-1H-indol-5-yl)-1,3,4-oxadiazol-2-yl)morpholine]
1.4 | 39 | 6910 | Cc1cc(-c2[nH]c3ccc(-c4nnc(C[C@@H]5CCCN5)o4)cc3c2C(C)C)ccn1 [Example 71, (S)-2-(3-isopropyl-2-(2-methylpyridin-4-yl)-1H-indol-5-yl)-5-(pyrrolidin-2-ylmethyl)-1,3,4-oxadiazole]
45 | 799 | 1870 | Cc1cc(-c2[nH]c3ccc(-c4nnc([C@H]5Cc6ccccc6CN5)o4)cc3c2C(C)C)ccn1 [Example 72, (R)-2-(3-isopropyl-2-(2-methylpyridin-4-yl)-1H-indol-5-yl)-5-(1,2,3,4-tetrahydroisoquinolin-3-yl)-1,3,4-oxadiazole]
1290 | 2290 | > 50000 | Cc1cc(-c2[nH]c3ccc(-c4nnc(Cc5c[nH]c6ccccc56)o4)cc3c2C(C)C)ccn1 [Example 73, 2-((1H-indol-3-yl)methyl)-5-(3-isopropyl-2-(2-methylpyridin-4-yl)-1H-indol-5-yl)-1,3,4-oxadiazole]
21 | 132 | 15800 | Cc1cc(-c2[nH]c3ccc(-c4nnc(Cc5cccnc5)o4)cc3c2C(C)C)ccn1 [Example 74, 2-(3-isopropyl-2-(2-methylpyridin-4-yl)-1H-indol-5-yl)-5-(pyridin-3-ylmethyl)-1,3,4-oxadiazole]
72 | 576 | > 50000 | Cc1cc(-c2[nH]c3ccc(-c4nnc(CC(F)(F)F)o4)cc3c2C(C)C)ccn1 [Example 75, 2-(3-isopropyl-2-(2-methylpyridin-4-yl)-1H-indol-5-yl)-5-(2,2,2-trifluoroethyl)-1,3,4-oxadiazole]
481 | 1900 | > 50000 | Cc1cc(-c2[nH]c3ccc(-c4nnc(Cc5nnn[nH]5)o4)cc3c2C(C)C)ccn1 [Example 76, 2-((1H-tetrazol-5-yl)methyl)-5-(3-isopropyl-2-(2-methylpyridin-4-yl)-1H-indol-5-yl)-1,3,4-oxadiazole]
1.7 | 29 | 695 | Cc1cc(-c2[nH]c3ccc(-c4nnc(CCCN(C)C)o4)cc3c2C(C)C)ccn1 [Example 77, 3-(5-(3-isopropyl-2-(2-methylpyridin-4-yl)-1H-indol-5-yl)-1,3,4-oxadiazol-2-yl)-N,N-dimethylpropan-1-amine]
535 | 2700 | > 50000 | Cc1cc(-c2[nH]c3ccc(-c4nnc(C5CCC(C(F)(F)F)CC5)o4)cc3c2C(C)C)ccn1 (stereo not drawn) [Example 78, 2-(3-isopropyl-2-(2-methylpyridin-4-yl)-1H-indol-5-yl)-5-(4-(trifluoromethyl)cyclohexyl)-1,3,4-oxadiazole]
7.5 | 65 | 1250 | Cc1cc(-c2[nH]c3ccc(-c4nnc(CN5CCN(C)CC5)o4)cc3c2C(C)C)ccn1 [Example 79, 2-(3-isopropyl-2-(2-methylpyridin-4-yl)-1H-indol-5-yl)-5-((4-methylpiperazin-1-yl)methyl)-1,3,4-oxadiazole]
1.2 | 19 | 592 | Cc1cc(-c2[nH]c3ccc(-c4nnc([C@@H]5CCCNC5)o4)cc3c2C(C)C)ccn1 [Example 80, (R)-2-(3-isopropyl-2-(2-methylpyridin-4-yl)-1H-indol-5-yl)-5-(piperidin-3-yl)-1,3,4-oxadiazole]
73 | 774 | > 50000 | Cc1cc(-c2[nH]c3ccc(-c4nnc([C@@H]5Cc6ccccc6CN5)o4)cc3c2C(C)C)ccn1 [Example 81, (S)-2-(3-isopropyl-2-(2-methylpyridin-4-yl)-1H-indol-5-yl)-5-(1,2,3,4-tetrahydroisoquinolin-3-yl)-1,3,4-oxadiazole]
96 | 596 | > 50000 | Cc1cc(-c2[nH]c3ccc(-c4nnc([C@H]5CSCN5)o4)cc3c2C(C)C)ccn1 [Example 82, (S)-2-(3-isopropyl-2-(2-methylpyridin-4-yl)-1H-indol-5-yl)-5-(thiazolidin-4-yl)-1,3,4-oxadiazole]
40 | 158 | 2550 | COc1ccc(-c2[nH]c3ccc(-c4nnc(C5CCN(CC(=O)N(C)C)CC5)o4)cc3c2CC(F)(F)F)cc1OC [Example 83, 2-(4-(5-(2-(3,4-dimethoxyphenyl)-3-(2,2,2-trifluoroethyl)-1H-indol-5-yl)-1,3,4-oxadiazol-2-yl)piperidin-1-yl)-N,N-dimethylacetamide]
6 | 87 | 235 | CC(C)c1c(-c2ccnc3[nH]ncc23)[nH]c2ccc(-c3nnc(C(=O)NC4CCN(C(C)C)CC4)o3)cc12 [Example 84, 5-(3-isopropyl-2-(1H-pyrazolo[3,4-b]pyridin-4-yl)-1H-indol-5-yl)-N-(1-isopropylpiperidin-4-yl)-1,3,4-oxadiazole-2-carboxamide]
9.2 | 328 | 590 | CC(C)c1c(-c2ccnc3[nH]ncc23)[nH]c2ccc(-c3nnc(C(=O)N4CC5CNCC5C4)o3)cc12 (stereo not drawn) [Example 85, (hexahydropyrrolo[3,4-c]pyrrol-2(1H)-yl)(5-(3-isopropyl-2-(1H-pyrazolo[3,4-b]pyridin-4-yl)-1H-indol-5-yl)-1,3,4-oxadiazol-2-yl)methanone]
6.1 | 85 | 324 | CC(C)c1c(-c2ccnc3[nH]ncc23)[nH]c2ccc(-c3nnc(C4CCN(C(=O)CN(C)C)CC4)o3)cc12 [Example 86, 2-(dimethylamino)-1-(4-(5-(3-isopropyl-2-(1H-pyrazolo[3,4-b]pyridin-4-yl)-1H-indol-5-yl)-1,3,4-oxadiazol-2-yl)piperidin-1-yl)ethan-1-one]
9.8 | 549 | 5660 | CC(C)c1c(-c2ccnc3[nH]ncc23)[nH]c2ccc(-c3nnc(C4CCN(CC(=O)N(C)C)CC4)o3)cc12 [Example 87, 2-(4-(5-(3-isopropyl-2-(1H-pyrazolo[3,4-b]pyridin-4-yl)-1H-indol-5-yl)-1,3,4-oxadiazol-2-yl)piperidin-1-yl)-N,N-dimethylacetamide]
10 | 294 | 4760 | CNC(=O)CN1CCC(c2nnc(-c3ccc4[nH]c(-c5ccnc6[nH]ncc56)c(C(C)C)c4c3)o2)CC1 [Example 88, 2-(4-(5-(3-isopropyl-2-(1H-pyrazolo[3,4-b]pyridin-4-yl)-1H-indol-5-yl)-1,3,4-oxadiazol-2-yl)piperidin-1-yl)-N-methylacetamide]
217 | 1490 | 9640 | CCN(CC)C(=O)C1CCCN(C(=O)c2nnc(-c3ccc4[nH]c(-c5ccc(OC)c(OC)c5)c(C(C)C)c4c3)o2)C1 (stereo not drawn) [Example 89, 1-(5-(2-(3,4-dimethoxyphenyl)-3-isopropyl-1H-indol-5-yl)-1,3,4-oxadiazole-2-carbonyl)-N,N-diethylpiperidine-3-carboxamide]
4 | 30 | 802 | COc1ccc(-c2[nH]c3ccc(-c4nnc(C(=O)NCCN(C)C)o4)cc3c2C(C)C)cc1OC [Example 90, 5-(2-(3,4-dimethoxyphenyl)-3-isopropyl-1H-indol-5-yl)-N-(2-(dimethylamino)ethyl)-1,3,4-oxadiazole-2-carboxamide]

Source: patent publication US11420958B2, “Aryl and heteroaryl substituted indole compounds” (BRISTOL-MYERS SQUIBB COMPANY, priority 2017, dated 2022)
